Experimental data taken from patent US20250388565A1, “ESTROGEN RECEPTOR ALPHA DEGRADERS AND METHODS OF USE THEREOF” (Relay Therapeutics, Inc., priority 2022, published 2025).

Target: T1, ERα protein (HiBiT-tagged) in ESR1_HiBiT KI MCF7 cells (Homo sapiens, UniProt P03372)
T1 sequence (P03372 1-595): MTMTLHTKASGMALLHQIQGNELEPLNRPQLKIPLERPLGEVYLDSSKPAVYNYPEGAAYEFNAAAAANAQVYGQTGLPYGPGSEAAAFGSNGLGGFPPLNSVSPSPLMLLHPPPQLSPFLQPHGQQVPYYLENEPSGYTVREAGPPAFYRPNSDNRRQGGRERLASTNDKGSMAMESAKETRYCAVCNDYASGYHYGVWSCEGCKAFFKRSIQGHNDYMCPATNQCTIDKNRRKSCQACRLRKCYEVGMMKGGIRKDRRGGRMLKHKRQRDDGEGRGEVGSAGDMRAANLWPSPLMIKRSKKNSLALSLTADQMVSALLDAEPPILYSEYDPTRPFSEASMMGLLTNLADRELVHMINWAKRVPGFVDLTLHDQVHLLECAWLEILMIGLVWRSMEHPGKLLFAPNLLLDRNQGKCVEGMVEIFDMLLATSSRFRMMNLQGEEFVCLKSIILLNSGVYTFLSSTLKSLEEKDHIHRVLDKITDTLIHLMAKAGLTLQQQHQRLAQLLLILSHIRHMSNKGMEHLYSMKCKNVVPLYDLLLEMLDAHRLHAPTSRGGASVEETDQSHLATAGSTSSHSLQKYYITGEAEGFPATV
Assay: Nano Glo HiBiT Lytic Degradation Assay
Format: cell-based
Conditions: 6 hours with compound, 14-point dose response 1:3, bell-shape curve fit, half-maximal effect of first Hill model, read-out: MCF7 ESR1 HiBiT - (DC50)
How it was run: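 Lytic Nano-Glo HiBiT luminescence quantified ERα remaining after a 6 h, 37° C compound exposure of MCF7 cells carrying endogenous HiBiT-tagged ESR1. Dosing used 14 threefold dilutions from a 10 mM DMSO stock (0.1% DMSO final), run in duplicate. Signals were corrected for cell-free background and expressed relative to DMSO, and DC50 came from a bell-shaped curve fit (first Hill model half-maximum).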

**Q.** How did the DC50 turn out when `O=C1CC[C@H](N2Cc3cc(N4CCN(CC5CCN(c6ccc([C@H]7c8ccc(O)cc8CC[C@H]7c7cccc(O)c7)cc6)CC5)CC4)ccc3C2=O)C(=O)N1` [Compound I-127, (3S)-3-[5-[4-[[1-[4-[(1S,2R)-6-hydroxy-2-(3-hydroxyphenyl)tetralin-1-yl]phenyl]-4-piperidyl]methyl]piperazin-1-yl]-1-oxo-isoindolin-2-yl]piperidine-2,6-dione] was run?
**A.** ≥ 10000 nM

**Q.** How did the DC50 turn out when `C[C@H]1Cc2cc(O)ccc2[C@H](c2ccc(N3CCC(CN4CCN(c5ccc6c(c5)CN([C@H]5CCC(=O)NC5=O)C6=O)CC4)CC3)cc2)[C@@H]1c1ccccc1` [Compound I-334, (S)-3-(5-(4-((1-(4-((1S,2R,3S)-6-hydroxy-3-methyl-2-phenyl-1,2,3,4-tetrahydronaphthalen-1-yl)phenyl)piperidin-4-yl)methyl)piperazin-1-yl)-1-oxoisoindolin-2-yl)piperidine-2,6-dione] was run?
**A.** 28 nM

**Q.** For `O=C1CCC(c2ccc(N3CCN(CCC4CCN(c5ccc([C@@H]6c7ccc(O)cc7CC[C@@H]6c6ccccc6)cc5)CC4)CC3)cc2)C(=O)N1` (single isomer, unassigned) [Compound I-8], which DC50 is on record?
**A.** ≥ 10000 nM

**Q.** With `O=C1CC[C@H](N2Cc3cc(N4CCN(CC5CCN(c6ccc(C7=C(c8ccccc8)CCc8cc(C(=O)O)ccc87)cc6)CC5)CC4)ccc3C2=O)C(=O)N1` [Compound I-7, (S)-5-(4-(4-((4-(2-(2,6-dioxopiperidin-3-yl)-1-oxoisoindolin-S-yl)piperazin-1-yl)methyl)piperidin-1-yl)phenyl)-6-phenyl-7,8-dihydronaphthalene-2-carboxylic acid] as the molecule, how does the DC50 read?
**A.** ≥ 10000 nM

**Q.** `O=C1CC[C@H](N2Cc3cc(N4CCN(CC5CCN(c6ccc([C@@H]7c8ccc(O)cc8CC[C@@H]7c7cccc(O)c7)cc6)CC5)CC4)ccc3C2=O)C(=O)N1` [Compound I-126, (3S)-3-[5-[4-[[1-[4-[(1R,2S)-6-hydroxy-2-(3-hydroxyphenyl)tetralin-1-yl]phenyl]-4-piperidyl]methyl]piperazin-1-yl]-1-oxo-isoindolin-2-yl]piperidine-2,6-dione] was tested. Which DC50 did it give?
**A.** 0.07 nM

**Q.** With `C[C@H]1OC2(CCCCC2)[C@@H](c2ccc(N3CCC(CN4CCN(c5ccc6c(c5)CN([C@H]5CCC(=O)NC5=O)C6=O)CC4)CC3)cc2)c2ccc(O)cc21` [Compound I-268, (S)-3-(5-(4-((1-(4-((1′R,4′S)-7′-hydroxy-1′-methylspiro[cyclohexane-1,3′-isochroman]-4′-yl)phenyl)piperidin-4-yl)methyl)piperazin-1-yl)-1-oxoisoindolin-2-yl)piperidine-2,6-dione] as the molecule, how does the DC50 read?
**A.** ≥ 10000 nM

**Q.** Which DC50 does the source give for `O=C1CC[C@@H](N2Cc3cc(N4CCN(CC5CCN(c6ccc([C@@H]7c8ccc(O)cc8CC[C@@H]7c7ccc(F)cc7)cc6)CC5)CC4)ccc3C2=O)C(=O)N1` [II-110] here?
**A.** 0.88 nM

**Q.** With `O=C1CCC(c2ccc(N3CC[C@@]4(CCN(CC5CCN(c6ccc([C@@H]7c8ccc(O)cc8CC[C@@H]7c7ccccc7)cc6)CC5)C4)C3)cc2)C(=O)N1` (single isomer, unassigned) [Compound I-280] as the molecule, how does the DC50 read?
**A.** 0.76 nM

**Q.** Which DC50 does the source give for `O=C1CC[C@H](N2Cc3cc(N4CCN(CC5CCN(c6ccc([C@H]7c8ccc(O)cc8CO[C@@H]7C7CCCCC7)cc6)CC5)CC4)ccc3C2=O)C(=O)N1` [Compound I-248, (S)-3-(5-(4-((1-(4-((3R,4S)-3-cyclohexyl-7-hydroxyisochroman-4-yl)phenyl)piperidin-4-yl)methyl)piperazin-1-yl)-1-oxoisoindolin-2-yl)piperidine-2,6-dione] here?
**A.** 21 nM

**Q.** `CC(C1CCN(c2ccc([C@@H]3c4ccc(O)cc4CC[C@@H]3c3ccccc3)cc2)CC1)N1CCN(c2ccc3c(c2)CN([C@H]2CCC(=O)NC2=O)C3=O)CC1` (single isomer, unassigned) [II-44] was tested. Which DC50 did it give?
**A.** 2 nM

**Q.** For `Cn1nccc1[C@H]1CCc2cc(O)ccc2[C@H]1c1ccc(N2CCC(CN3CCN(c4ccc5c(c4)CN([C@H]4CCC(=O)NC4=O)C5=O)CC3)CC2)cc1` (single isomer, unassigned) [Compound I-24], which DC50 is on record?
**A.** ≥ 10000 nM
